Laboratory results published in ChEMBL document CHEMBL1132676, “Resolution of a CPzI precursor, synthesis and biological evaluation of (+) and (-)-N-Boc-CPzI: a further validation of the relationship between chemical solvolytic stability and cytotoxicity” (Bioorg Med Chem Lett, 1999).
pIC50: −log10 of the molar value.

Legend:
[1] = The compound was evaluated for the chemical solvolytic stability at a pH 3; assay type: physicochemical; details: buffer
L1210 = experiment: In vitro cytotoxicity against L1210 murine leukemia cell lines; assay type: functional, cell-based; details: Mus musculus

Q: Which half-life [1] does the source give for `CC(C)(C)OC(=O)N1C[C@H]2C[C@@]23C1=CC(=O)c1ccccc13` here?
A: The half-life was 133 h.

Q: What about the pIC50 (L1210) of the same compound?
A: Its pIC50 is 7.10.

Q: With `Cc1n[nH]c2c1[C@]13C[C@H]1CN(C(=O)OC(C)(C)C)C3=CC2=O` as the compound, how does the pIC50 (L1210) read?
A: Its pIC50 is 6.03.

Q: With `Cc1c[nH]c2c1[C@@]13C[C@@H]1CN(C(=O)OC(C)(C)C)C3=CC2=O` as the compound, how does the T1/2 [1] read?
A: Its T1/2 is 37 h.

Q: With `Cc1n[nH]c2c1[C@@]13C[C@@H]1CN(C(=O)OC(C)(C)C)C3=CC2=O` as the compound, how does the pIC50 (L1210) read?
A: Its pIC50 is 6.69.

Q: Which half-life [1] does the source give for `COC(=O)c1cc2c([nH]1)C(=O)C=C1N(C(=O)OC(C)(C)C)C[C@H]3C[C@]123` here?
A: The half-life was 177 h.

Q: And the pIC50 (L1210)?
A: Its pIC50 is 8.22.

Q: With `Cc1n[nH]c2c1C13CC1CN(C(=O)OC(C)(C)C)C3=CC2=O` (centres undefined) as the compound, how does the half-life [1] read?
A: The half-life was 110 h.

Q: What about the pIC50 (L1210) of the same compound?
A: Its pIC50 is 6.43.
